Source: US20120190752A1, “EXO-S-MECAMYLAMINE METHOD, USE, AND COMPOUND FOR TREATMENT” (Targacept Inc., priority 2009, published 2012)

System: subjects with major depressive disorder (MDD) who were inadequate responders to citalopram
Test: CGI-SI (Clinical Global Impression-Severity of Illness), Phase 2b add-on trial
Assay type: in vivo, human
Source text: The Clinical Global Impression rating scales are commonly used measures of symptom severity, treatment response and the efficacy of treatments in treatment studies of patients with mental disorders (Guy, W., 1976). The Clinical Global Impression—Severity scale (CGI-S) is a 7-point scale that requires the clinician to rate the severity of the patient's illness at the time of assessment, relative to the clinician's past experience with patients who have the same diagnosis. Considering total clinical experience, a patient is assessed on severity of mental illness at the time of rating. In more detail, a multi-center double-blind, randomized, placebo-controlled, parallel group, flexible dose titration study of TC-5214 as adjunctive therapy in subjects with major depressive disorder (MDD) who were inadequate responders to citalopram was conducted in centers in the US and India. The study consisted of a screening period, baseline/washout period, open-label phase, double-blind phase, and a follow-up visit. Subject participation in the study could continue for up to 16 weeks of treatment. Following a washout period of up to 28 days for other antidepressants, subjects with MDD and a MADRS total score >/=28 and a Clinical Global Impression-Severity (CGI-S) score >/=4 were enrolled on Day 1 into an open-label citalopram-only phase of the study. This phase lasted 8 weeks, with citalopram (CIT) dose increased from a once-daily dose of 20 mg (Day 1 through Week 4) to 40 mg (Week 4 through Week 8). A total of 579 subjects entered the open-label citalopram phase. At Week 8, subjects who tolerated 40 mg CIT, but whose MADRS score was reduced <50% from baseline and no lower than 17, and CGI-S≧4, were considered inadequate responders. These subjects (n=270) were randomized in a double-blind fashion to receive either placebo or TC-5214-23 as add-on therapy to continued CIT. The double-blind phase of the study also lasted 8 weeks (Week 8 to Week 16). Study drug, TC-5214-23 or placebo, was started at 2 mg daily (1 mg twice per day [BID] dosing), added on to continuing CIT (40 mg PO qd). After 2 weeks of treatment, the dose of TC-5214 could be increased to 4 mg (2 mg BID) or continued unchanged, with up-titration based upon good tolerability and inadequate therapeutic response. After a further 2 weeks, the dose of TC-5214 could be increased again to 8 mg (4 mg BID) if judged appropriate by the investigator, based upon good tolerability and inadequate therapeutic response. At any time during the double-blind phase of the study, placebo or TC-5214-23 could be reduced to the previous dose level following the emergence of unacceptable adverse events (AEs). […] At this follow-up, any signs or symptoms of relapse were evaluated. If a subject was prematurely discontinued from the study between Week 8 and Week 16 for any reason, the investigator was to make every effort to perform all evaluations as per protocol, assuming the subject had reached the end of the double-blind add-on treatment phase. These evaluations were to be made as soon as possible and within 2 weeks of discontinuation. […] There was no meaningful difference in results as a function of age, gender, site, or smoking status. With regard to efficacy endpoints, the following tables present efficacy used in the ITT (Intent-to-Treat) and PP (Per Protocol) populations unless otherwise specific. The primary inference was based upon Week 16 visit using the ITT population. Change from baseline was obtained by subtracting the baseline values from the individual on-treatment values. Change from Week 16 was obtained by subtracting the Week 16 values from the individual follow-up visit (Week 18/19) values. If either the baseline or Week 16 or on-treatment or follow-up value was missing, the change from baseline or Week 16 value was also set to missing. […]

[1] = ITT, Double Blind Week 18 LOCF (Follow-up), change from Week 16
[2] = PP, Double Blind Week 16 LOCF (change from Week 8)
[3] = PP, Double Blind Week 18 LOCF (Follow-up), change from Week 16

Structure (SMILES): CNC1(C)C2CCC(C2)C1(C)C (stereo in doubt) [TC-5214, (S)—N,2,3,3-tetramethylnorbornan-2-amine]
- CGI-SI score change from baseline compared with placebo (ITT and PP populations, result in words): statistically significant decreases (improvements)
- CGI-SI Mean Difference between TC-5214 and Placebo (ITT, Double Blind Week 16 LOCF (change from Week 8)): 0.87
- CGI-SI Adjusted Mean change [1]: −0.05
- CGI-SI Mean Difference between TC-5214 and Placebo [1]: 0.01
- CGI-SI Difference vs Placebo + CIT (ITT, Week 8 to Week 16 LOCF): −0.87
- CGI-SI Adj. Mean change (ITT, change from Week 8 (double-blind baseline) to Week 16 LOCF, add-on to citalopram): −1.79
- CGI-SI Adjusted Mean change [2]: −2.00
- CGI-SI Mean Difference between TC-5214 and Placebo [2]: 0.92
- CGI-SI Adjusted Mean change [3]: −0.07
- CGI-SI Mean Difference between TC-5214 and Placebo [3]: 0.05
